{
  "source": "ChEMBL document CHEMBL1914417",
  "about": "(Bioorg Med Chem Lett, 2011)",
  "key": {"[1]": {"experiment": "Ratio of AUC in brain to AUC in blood in Sprague-Dawley rat at 10 mg/kg, po after 90 mins", "assay_type": "ADME, organism-based", "set-up": "dose 10 mg/kg, route oral", "conditions": "read-out: BPR"}, "[2]": {"experiment": "Volume of distribution at steady state in rat 1 mg/kg, iv and 10 mg/kg, po", "assay_type": "ADME, organism-based", "conditions": "in vivo, read-out: Vdss"}, "[3]": {"test_system": "Plasma", "experiment": "Fraction unbound in rat plasma", "assay_type": "ADME, cell-free"}, "[4]": {"test_system": "Rattus norvegicus", "experiment": "Oral bioavailability in rat 10 mg/kg", "assay_type": "ADME, organism-based", "conditions": "in vivo"}, "[5]": {"experiment": "Clearance in rat at 1 mg/kg, iv and 10 mg/kg, po", "assay_type": "ADME, organism-based", "conditions": "in vivo"}, "[6]": {"test_system": "Plasma", "experiment": "Fraction unbound in human plasma", "assay_type": "ADME, cell-free"}, "[7]": {"target": "hERG (KCNH2) (Homo sapiens, UniProt Q12809)", "sequence (Q12809 whole entry)": "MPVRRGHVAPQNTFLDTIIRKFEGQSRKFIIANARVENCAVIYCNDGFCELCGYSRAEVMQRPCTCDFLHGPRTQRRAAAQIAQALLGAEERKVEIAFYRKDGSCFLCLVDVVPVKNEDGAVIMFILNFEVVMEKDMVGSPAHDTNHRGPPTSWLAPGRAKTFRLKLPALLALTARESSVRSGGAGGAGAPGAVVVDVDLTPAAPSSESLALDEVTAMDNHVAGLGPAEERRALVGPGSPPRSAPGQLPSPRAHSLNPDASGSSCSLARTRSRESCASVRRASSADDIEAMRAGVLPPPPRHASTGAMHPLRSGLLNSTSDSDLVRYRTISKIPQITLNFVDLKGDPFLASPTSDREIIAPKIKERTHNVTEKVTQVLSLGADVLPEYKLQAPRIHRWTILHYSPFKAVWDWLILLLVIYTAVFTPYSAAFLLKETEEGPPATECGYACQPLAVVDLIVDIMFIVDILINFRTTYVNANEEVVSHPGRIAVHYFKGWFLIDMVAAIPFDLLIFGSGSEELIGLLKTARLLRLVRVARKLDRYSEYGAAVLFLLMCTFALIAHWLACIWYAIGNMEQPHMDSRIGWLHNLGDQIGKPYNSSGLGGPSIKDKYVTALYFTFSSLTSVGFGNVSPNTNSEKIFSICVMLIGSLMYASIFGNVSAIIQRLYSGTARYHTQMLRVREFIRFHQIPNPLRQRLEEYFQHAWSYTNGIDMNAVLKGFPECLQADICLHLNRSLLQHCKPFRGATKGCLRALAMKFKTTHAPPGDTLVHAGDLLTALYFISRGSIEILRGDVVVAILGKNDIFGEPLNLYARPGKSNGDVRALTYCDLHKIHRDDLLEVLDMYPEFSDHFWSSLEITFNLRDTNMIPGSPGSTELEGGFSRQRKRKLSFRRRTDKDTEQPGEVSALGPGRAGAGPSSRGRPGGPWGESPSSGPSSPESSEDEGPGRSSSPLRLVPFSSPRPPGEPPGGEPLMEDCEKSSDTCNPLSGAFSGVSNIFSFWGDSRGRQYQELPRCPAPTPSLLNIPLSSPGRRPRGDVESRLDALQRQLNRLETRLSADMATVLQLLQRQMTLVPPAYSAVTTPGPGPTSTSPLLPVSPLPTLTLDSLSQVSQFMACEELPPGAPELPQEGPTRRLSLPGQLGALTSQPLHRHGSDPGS", "experiment": "Inhibition of human ERG at 10 uM"}, "[8]": {"experiment": "Potentiation of NMDA receptor-induced current in hippocampal CA1 pyramidal cells at 30 uM", "assay_type": "tissue-based", "conditions": "Hippocampus"}, "[9]": {"target": "Cytochrome P450 2C9 (Homo sapiens, UniProt P11712)", "sequence (P11712 whole entry)": "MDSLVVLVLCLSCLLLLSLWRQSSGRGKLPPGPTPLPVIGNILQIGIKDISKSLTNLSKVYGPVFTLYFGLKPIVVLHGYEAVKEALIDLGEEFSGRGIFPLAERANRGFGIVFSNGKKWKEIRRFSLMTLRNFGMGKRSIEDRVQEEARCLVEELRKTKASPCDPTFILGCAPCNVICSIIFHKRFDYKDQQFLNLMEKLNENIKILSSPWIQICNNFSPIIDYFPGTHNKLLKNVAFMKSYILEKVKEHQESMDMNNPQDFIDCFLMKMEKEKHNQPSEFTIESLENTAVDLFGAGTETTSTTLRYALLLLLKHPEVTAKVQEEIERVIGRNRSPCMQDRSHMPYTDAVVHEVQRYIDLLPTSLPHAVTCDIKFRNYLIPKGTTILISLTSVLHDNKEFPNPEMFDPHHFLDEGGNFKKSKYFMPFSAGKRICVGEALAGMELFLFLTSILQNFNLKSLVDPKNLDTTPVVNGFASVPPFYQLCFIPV", "experiment": "Inhibition of CYP2C9", "assay_type": "ADME"}},
  "note": "Active and inactive are the calls of the source. No cut-off for these calls is given here.",
  "data": [
    {"smiles": "CCOC(=O)N1CCC(N2CCC[C@@H](NC(=O)c3ccccc3C)C2)CC1", "values": [
      {"measurement": "Kp at 1.5 h", "setting": "[1]", "value": 1.35},
      {"measurement": "Vd", "setting": "[2]", "value": 0.98, "unit": "L/kg"},
      {"measurement": "Fu", "setting": "[3]", "value": 14.9, "unit": "%"},
      {"measurement": "F", "setting": "[4]", "value": 37, "unit": "%"},
      {"measurement": "clearance", "setting": "[5]", "value": 14.7, "unit": "mL/min/kg"},
      {"measurement": "Fu", "setting": "[6]", "value": 5.8, "unit": "%"},
      {"measurement": "inhibition at 10 µM", "setting": "[7]", "value": 22, "unit": "%"},
      {"measurement": "Activity", "setting": "[8]", "value": "Active"},
      {"measurement": "IC50", "setting": "[9]", "value": "> 25", "unit": "µM"}
    ]}
  ]
}
